The MIC is the smallest concentration in the dilution series that meets the test's criterion for growth inhibition.

Molecules are shown by their SMILES. ≈ marks a conversion by molar mass, not a printed value.

Experimental findings from ChEMBL document CHEMBL5380831, “Azolylpyrimidinediols as Novel Structural Scaffolds of DNA-Groove Binders against Intractable Acinetobacter baumannii” (J Med Chem, 2023) are described below.

What all share (type): functional
Assay [1] relates to Pseudomonas aeruginosa. The experiment in a line: Antibacterial activity against Pseudomonas aeruginosa assessed as bacterial growth inhibition incubated for 24 hrs by broth microdilution method. A general note: Broth dilution looks for growth in wells or tubes with falling amounts of substance.
The subject of assay [2] is Staphylococcus aureus. Briefly: Antibacterial activity against Staphylococcus aureus ATCC 25923 assessed as bacterial growth inhibition incubated for 24 hrs by broth microdilution method.
For assay [3], the system named is Escherichia coli. Briefly: Antibacterial activity against Escherichia coli assessed as bacterial growth inhibition incubated for 24 hrs by broth microdilution method.
Assay [4] has as its system Acinetobacter baumannii. The experiment in a line: Antibacterial activity against Acinetobacter baumannii assessed as bacterial growth inhibition incubated for 24 hrs by broth microdilution method.
Assay [5] relates to Escherichia coli. Briefly: Antibacterial activity against Escherichia coli ATCC 25922 assessed as bacterial growth inhibition incubated for 24 hrs by broth microdilution method.
For assay [6], the system named is Staphylococcus aureus. The experiment in a line: Antibacterial activity against methicillin-resistant Staphylococcus aureus assessed as bacterial growth inhibition incubated for 24 hrs by broth microdilution method.
The subject of assay [7] is Klebsiella pneumoniae. Briefly: Antibacterial activity against Klebsiella pneumoniae assessed as bacterial growth inhibition incubated for 24 hrs by broth microdilution method.
Assay [8] has as its system Staphylococcus aureus. Briefly: Antibacterial activity against Staphylococcus aureus ATCC 29213 assessed as bacterial growth inhibition incubated for 24 hrs by broth microdilution method.
Assay [9] has as its system Enterococcus faecalis. The experiment in a line: Antibacterial activity against Enterococcus faecalis assessed as bacterial growth inhibition incubated for 24 hrs by broth microdilution method.
In assay [10] the test system is Pseudomonas aeruginosa. The experiment in a line: Antibacterial activity against Pseudomonas aeruginosa ATCC 27853 assessed as bacterial growth inhibition incubated for 24 hrs by broth microdilution method.
Assay [11] relates to Staphylococcus aureus. Briefly: Antibacterial activity against Staphylococcus aureus assessed as bacterial growth inhibition incubated for 24 hrs by broth microdilution method.

In the case of `OCCN(CCO)c1nccc(-n2ccnc2)n1`, the MIC in assay [1], in assay [2], in assay [3], in assay [4], in [5] and in [6] was 1030 µM (≈ 256 µg/mL) throughout. The minimal inhibitory concentration (MIC) in assay [7], in [8], in assay [9], in assay [10] and in assay [11] was 1030 µM (≈ 256 µg/mL) in each case.
In the case of `CCN(CCO)c1nccc(-n2cncn2)n1`, the MIC in assay [1] is 547 µM (≈ 128 µg/mL); in [2], 1090 µM (≈ 256 µg/mL); in assay [3], 1090 µM (≈ 256 µg/mL); in [4] it was 1090 µM (≈ 256 µg/mL); in [5], 547 µM (≈ 128 µg/mL); in assay [6], 1090 µM (≈ 256 µg/mL). The MIC in assay [7], in [8], in assay [9], in assay [10] and in [11] was 1090 µM (≈ 256 µg/mL) throughout.
As to `CO/N=C(/C(=O)N1CCN(c2nccc(-n3cncn3)n2)CC1)c1csc(N)n1`, the MIC came to 587 µM (≈ 243 µg/mL) in assay [1]; 587 µM (≈ 243 µg/mL) in [2]; 294 µM (≈ 122 µg/mL) in assay [3]; 294 µM (≈ 122 µg/mL) in [4]; 147 µM (≈ 60.9 µg/mL) in assay [5]; 294 µM (≈ 122 µg/mL) in assay [6]. Besides, the MIC in assay [7] was 147 µM (≈ 60.9 µg/mL); in [8], 587 µM (≈ 243 µg/mL); in [9] it was 294 µM (≈ 122 µg/mL); in [10], 294 µM (≈ 122 µg/mL); in assay [11], 294 µM (≈ 122 µg/mL).
Regarding `Cc1nc2ccccc2n1-c1ccnc(N(CCO)CCO)n1`, the MIC in [1] was determined as 26 µM (≈ 8.15 µg/mL); in [2], 102 µM (≈ 32 µg/mL); in assay [3], 51 µM (≈ 16 µg/mL); in assay [4] it was 204 µM (≈ 63.9 µg/mL); in [5], 817 µM (≈ 256 µg/mL); in [6] it was 204 µM (≈ 63.9 µg/mL). Also, the minimum inhibitory concentration (MIC) in assay [7] stood at 204 µM (≈ 63.9 µg/mL); in assay [8], 204 µM (≈ 63.9 µg/mL); in [9], 409 µM (≈ 128 µg/mL); in assay [10], 102 µM (≈ 32 µg/mL); in assay [11] it was 102 µM (≈ 32 µg/mL).
As to `O=C1c2cccc3c(N4CCN(c5nccc(-n6cncn6)n5)CC4)ccc(c23)C(=O)N1C(CO)CO`, the MIC came out at 512 µM (≈ 256 µg/mL) in assay [1]; 64 µM (≈ 32 µg/mL) in assay [2]; 512 µM (≈ 256 µg/mL) in assay [3]; 512 µM (≈ 256 µg/mL) in assay [4]; 255 µM (≈ 128 µg/mL) in [5]; 512 µM (≈ 256 µg/mL) in assay [6]. Besides, the MIC was determined as 226 µM (≈ 113 µg/mL) in [7]; 512 µM (≈ 256 µg/mL) in assay [8]; 256 µM (≈ 128 µg/mL) in [9]; 512 µM (≈ 256 µg/mL) in assay [10]; 512 µM (≈ 256 µg/mL) in assay [11].
`Cc1cn(-c2ccnc(N(CCO)CCO)n2)c(C)n1`: the MIC in assay [1] came out at 924 µM (≈ 256 µg/mL); in assay [2], 924 µM (≈ 256 µg/mL); in assay [3], 924 µM (≈ 256 µg/mL); in assay [4], 462 µM (≈ 128 µg/mL); in assay [5] it was 924 µM (≈ 256 µg/mL); in assay [6] it was 924 µM (≈ 256 µg/mL). For the same compound, the MIC came out at 934 µM (≈ 259 µg/mL) in assay [7]; 924 µM (≈ 256 µg/mL) in assay [8]; 924 µM (≈ 256 µg/mL) in [9]; 924 µM (≈ 256 µg/mL) in [10]; 924 µM (≈ 256 µg/mL) in [11].
On to `OCCN(CCO)c1nccc(-n2cnc3cc(Br)ccc32)n1`, for which the MIC amounted to 339 µM (≈ 128 µg/mL) in assay [1]; 339 µM (≈ 128 µg/mL) in assay [2]; 1360 µM (≈ 514 µg/mL) in assay [3]; 170 µM (≈ 64.3 µg/mL) in [4]; 1360 µM (≈ 514 µg/mL) in [5]; 339 µM (≈ 128 µg/mL) in [6]. In addition, the MIC in [7] amounted to 170 µM (≈ 64.3 µg/mL); in assay [8], 85 µM (≈ 32.1 µg/mL); in assay [9], 679 µM (≈ 257 µg/mL); in assay [10], 85 µM (≈ 32.1 µg/mL); in [11] it was 1360 µM (≈ 514 µg/mL).
For `Cc1cc2ncn(-c3ccnc(N(CCO)CCO)n3)c2cc1C`, the minimum inhibitory concentration (MIC) in assay [1] was 98 µM (≈ 32.1 µg/mL); in [2] it was 391 µM (≈ 128 µg/mL); in [3] it was 196 µM (≈ 64.2 µg/mL); in [4], 391 µM (≈ 128 µg/mL); in assay [5], 782 µM (≈ 256 µg/mL); in assay [6], 391 µM (≈ 128 µg/mL). For the same compound, the MIC in [7] amounted to 391 µM (≈ 128 µg/mL); in assay [8], 782 µM (≈ 256 µg/mL); in assay [9], 196 µM (≈ 64.2 µg/mL); in [10] it was 98 µM (≈ 32.1 µg/mL); in assay [11], 98 µM (≈ 32.1 µg/mL).
